The text below walks through data of patent US20250042880A1 (UNIVERSITY OF KENTUCKY RESEARCH FOUNDATION, priority 2021, published 2025).

Experiment [1] deals with LS174T cells. Kind of experiment: Cell proliferation inhibition assay, LS174T. In kind it is cell-based. To be noted: for IC50: Homo sapiens, LS174T, 120 h, 5 days, viable cells counted. As to the method: (§1) Cell proliferation inhibition assay-Cell proliferation inhibition assay was performed as previously reported (48). All compounds to be tested were dissolved at 10 mM in DMSO. The cells were seeded into 12-well plates at a density of 40,000 cells per well in 1 mL of culture medium and were cultured overnight at 37° C. Either 1 μL of the compounds or the vehicle control (DMSO) was added to the cells. After 5 days, the medium was removed, and 200 μL of 0.25% trypsin was added. The cells were resuspended in 800 μL phosphate-buffered saline (PBS) and counted with Vi-CELL XR 2.03 (Beckman Coulter, Inc. USA). The ratio R of the number of viable cells in the compound-treated group to the number of viable cells in the DMSO-treated group was called relative growth rate, and the growth inhibition was calculated as (1−R)*100.
(§2) Cell proliferation inhibition assay was conducted according to a previous report (48). The cells were split into 12-well plates at a density of 40,000 cells per well in 1 mL of culture medium and were cultured overnight at 37° C. Either 1 μL of the compounds dissolved at 10 mmol/L in DMSO or the vehicle control (DMSO) was added to the cells. After 5 days, removed the medium, and 200 μL of 0.25% trypsin was added. The cells were resuspended in phosphate-buffered saline (PBS) and counted with Vi-CELL XR 2.03 (Beckman Coulter, Inc. USA). The ratio R of the number of viable cells in the compound treatment group to the number of viable cells in the DMSO treatment group was defined as the relative growth rate, and the growth inhibition rate was calculated as (1−R)*100.

Experiment [2] has as its system LS174T cells. Kind of experiment: Apoptosis by flow cytometry (Annexin V-FITC/PI). Type of experiment: cell-based. As to conditions: 24 h, DBI-6 3 μM, BAY-876 1 μM, DMSO 17.28%. As to the method:
LS174T cells were cultured in 6-well plates at 37° C. for 24 hours. 3 μmol/L DBI-6 or 1 μmol/L BAY-876 were added to the cells and incubated for 24 hours. Cells of combination therapy group were treated with both DBI-6 and BAY-876. Then cells were harvested and washed with cold PBS twice and resuspended in 500 μL Binding Buffer. SubsequenμLy, the cells were stained with Annexin V-FITC and propidium iodide (PI) and incubated in dark for 5 minutes. The percentages of apoptosis and necrosis were determined by flow cytometry (BeckmanCoulter, Brea, CA, USA).
For orientation: A flow cytometer gives signals particle by particle.

For a further experiment, the system named is SKOV-3 cells. As to conditions: growth inhibition; cited from earlier work.
The next experiment has as its system LS174T xenografts. Kind of experiment: LS174T xenografts in Rag1 mice. Type of experiment: in vivo, mouse. As to conditions: DBI-6 40 mg/kg/day IP, BAY-876 3 mg/kg oral, 12 days. The text has this: Rag1 mice of 6 to 8 weeks of age were kindly provided by Institute of Genetics and Developmental Biology, Chinese Academy of sciences. LS174T cells in exponential growth phase were harvested and mixed with an equal volume of Matrigel (Corning, Glendale, Arizona). Each mouse was subcutaneously injected on the lower flanks with 2×10^6 cells. Tumor cell-injected mice were randomly divided into control and treatment groups when tumors were established and reached an average volume of 100 mm^3 (3 male and 3 female mice/group, two tumors on each mouse).
After tumors were established, DBI-6 was formulated in a mixture of ethanol (5%), 20% solutol and 20% Cremophor EL (50%) and Citric acid (45%; 50 mmol/L, pH4.5) and was daily intraperitoneally administered to the DBI-6 group at dose of 40 mg/kg mouse body weight. BAY-876 was dissolved in DMSO (10%), PEG400 (25%), Tween 80 (5%) and PBS (60%) and was given to the mice by gavage feeding to the BAY-876 group at a daily dose of 3 mg/kg mouse body weight. […]
The tumor sizes and mouse weights were measured every three days with calipers, and the tumor volume (Length×width^2/2) were calculated. […] Then the tumor sections were analyzed with H&E and Ki-67 staining. Plasma was collected and analyzed with the assay kit (Jiancheng Bioengineering Institute, Nanjing, China) according to the manufacturer's protocol. […]

In experiment [3] the test system is A2780 ovarian cancer cells. As to conditions: cited from earlier work.
The next experiment has as its system HCT116 cells. Kind of experiment: Cell proliferation inhibition assay, HCT116. In kind it is cell-based. As to conditions: Homo sapiens, HCT-116, 120 h; 5 days, viable cells counted. As to the method:
as §1, §2

As to `Cc1c(NC(=O)c2cc(C(N)=O)nc3cc(F)ccc23)c(C(F)(F)F)nn1Cc1ccc(C#N)cc1` [BAY-876, N^4-[1-(4-cyanobenzyl)-5-methyl-3-(trifluoromethyl)-1H-pyrazol-4-yl]-7-fluoroquinoline-2,4-dicarboxamide], the “inhibition of proliferation of LS174T cells” value in the experiment with LS174T cells [1] is “inhibited the proliferation of these cell lines at nanomolar concentrations”. The IC50 (as a rule, the point on the concentration scale where inhibition reaches its midpoint) in the experiment with LS174T cells [1] was 130 nM; in the experiment with SKOV-3 cells it was 188 nM; in the experiment with HCT116 cells, 170 nM. Moreover, the “apoptosis rate (percentage of apoptotic cells)” value in the experiment with LS174T cells [2] worked out at 34.57%. For the same compound, in the experiment on LS174T xenografts, the tumor growth result was “Tumor growth was inhibited”. Further, in experiment [3], the “sensitivity of A2780 ovarian cancer cells” value is “resistant”.
For the compound `O=c1c(-c2ccc(Cl)c(Cl)c2)coc2cc(OCCN3CCN(CCO)CC3)ccc12` [DBI-6, 3-(3,4-dichlorophenyl)-7-(2-(4-(2-hydroxyethyl)piperazin-1-yl)ethoxy)-4H-chromen-4-one], the figures for the half-maximal inhibitory concentration (IC50) in the experiment on LS174T cells [1] and with HCT116 cells were 1140 nM and 530 nM, respectively. Also, the “apoptosis rate (percentage of apoptotic cells)” value in the experiment on LS174T cells [2] was determined as 30.61%. The tumor growth result in the experiment on LS174T xenografts is “Tumor growth was inhibited”.
